Test system: ASD patient
Assay: ABC-J aberrant behavior checklist (58 items, each rated 0 no problems to 3 marked; 5 subscales) in ASD patients before and after oral intake of test drug
Type: in vivo, human
Set-up: key to ABC-J subscale total score: Hyperactivity / ABC-J subscale total score: Inappropriate Speech: subscale total: sum of its item scores (each 0 = none to 3 = marked)
Method: ABC-J is an aberrant behavior checklist available in Japan, which was made by translating and standardizing the revised version of the aberrant behavior checklist developed by American psychologists Aman M. G. and Singh N. N. as a rating scale for quantitatively assessing behavioral disorders associated with intellectual disability and developmental disorder. ABC-J is composed of 58 items that represent problematic behaviors, and a subject is assessed for each item on the following four-rating scale: there are no problems (0 points); the degree of problematic behavior is mild (1 point); the degree of problematic behavior is moderate (2 points); and the degree of problematic behavior is marked (3 points). These 58 items are classified into five subscales: I. Irritability (15 items); II. Lethargy (16 items); III. Stereotypical Behavior (7 items); IV. Hyperactivity (16 items); and V. Inappropriate Speech (4 items). Assessment can be made for each subscale (Ministry of Health, Labour and Welfare, Year 2012 Total Welfare Promotion Project for People with Disabilities, Guidelines for Support for and Assessment of Children with Developmental Disabilities, Asperger Society Japan (a specified non-profit organization), March 2013). […]
An ASD patient (body weight: 45 kg) orally took the test drug detailed below every day for 8 weeks, and their symptoms of ASD were assessed by the diagnostic method described below before (before the start of administration) and 8 weeks after the intake of the drug (8 weeks after the start of administration).
The symptoms of ASD of the ASD patient were assessed based on the scores of ABC-J, PARS-TR, and RSB-R (Japanese version) by a medical doctor who is a researcher of ASD. […]

[1] = case 1, 600 mg/day oral + fursultiamine 25 mg/day, 1 month after start, before administration: 0
[2] = case 1, 600 mg/day oral + fursultiamine 25 mg/day, 1 month after start, before administration: 1
[3] = case 1, 600 mg/day oral + fursultiamine 25 mg/day, 1 month after start, before administration: 2
[4] = case 1, 600 mg/day oral + fursultiamine 25 mg/day, 1 month after start, before administration: 3
[5] = case 2, 600 mg/day oral + fursultiamine 25 mg/day, 17 days after start, before administration: 0
[6] = case 2, 600 mg/day oral + fursultiamine 25 mg/day, 17 days after start, before administration: 1
[7] = case 2, 600 mg/day oral + fursultiamine 25 mg/day, 17 days after start, before administration: 2
[8] = case 2, 600 mg/day oral + fursultiamine 25 mg/day, 17 days after start, before administration: 4
[9] = case 4, 800 mg/day oral + fursultiamine 25 mg/day, 8 weeks

Cc1ncc(CO)c(CN)c1O.Cl.Cl [pyridoxamine dihydrochloride]
5: ABC-J subscale total score: Lethargy (case 2, 600 mg/day oral + fursultiamine 25 mg/day, 17 days after start, before administration: 18)
4: ABC-J subscale total score: Hyperactivity (case 1, 600 mg/day oral + fursultiamine 25 mg/day, 1 month after start, before administration: 19)
6: ABC-J subscale total score: Lethargy (case 1, 600 mg/day oral + fursultiamine 25 mg/day, 1 month after start, before administration: 10) | ABC-J subscale total score: Stereotypical Behavior (case 1, 600 mg/day oral + fursultiamine 25 mg/day, 1 month after start, before administration: 15)
0: ABC-J item 2 score (Irritability) [1] | ABC-J item 3 score (Lethargy) [1] | ABC-J item 5 score (Lethargy) [1] | ABC-J item 9 score (Inappropriate Speech) [1] | ABC-J item 13 score (Hyperactivity) [1] | ABC-J item 16 score (Lethargy) [1] | ABC-J item 33 score (Inappropriate Speech) [1] | ABC-J item 34 score (Irritability) [1] | ABC-J item 42 score (Lethargy) [1] | ABC-J item 47 score (Irritability) [1] | ABC-J item 50 score (Irritability) [1] | ABC-J item 52 score (Irritability) [1] | ABC-J item 53 score (Lethargy) [1] | ABC-J item 54 score (Hyperactivity) [1] | ABC-J item 55 score (Lethargy) [1] | ABC-J item 56 score (Hyperactivity) [1] | ABC-J item 8 score (Irritability) [2] | ABC-J item 17 score (Stereotypical Behavior) [2] | ABC-J item 18 score (Hyperactivity) [2] | ABC-J item 19 score (Irritability) [2] | ABC-J item 21 score (Hyperactivity) [2] | ABC-J item 24 score (Hyperactivity) [2] | ABC-J item 25 score (Irritability) [2] | ABC-J item 26 score (Lethargy) [2] | ABC-J item 28 score (Hyperactivity) [2] | ABC-J item 29 score (Irritability) [2] | ABC-J item 30 score (Lethargy) [2] | ABC-J item 31 score (Hyperactivity) [2] | ABC-J item 36 score (Irritability) [2] | ABC-J item 37 score (Lethargy) [2] | ABC-J item 41 score (Irritability) [2] | ABC-J item 43 score (Lethargy) [2] | ABC-J item 46 score (Inappropriate Speech) [2] | ABC-J item 51 score (Hyperactivity) [2] | ABC-J item 57 score (Irritability) [2] | ABC-J item 7 score (Hyperactivity) [3] | ABC-J item 10 score (Irritability) [3] | ABC-J item 14 score (Irritability) [3] | ABC-J item 39 score (Hyperactivity) [3] | ABC-J item 44 score (Hyperactivity) [3] | ABC-J item 2 score (Irritability) [5] | ABC-J item 7 score (Hyperactivity) [5] | ABC-J item 8 score (Irritability) [5] | ABC-J item 9 score (Inappropriate Speech) [5] | ABC-J item 11 score (Stereotypical Behavior) [5] | ABC-J item 13 score (Hyperactivity) [5] | ABC-J item 17 score (Stereotypical Behavior) [5] | ABC-J item 18 score (Hyperactivity) [5] | ABC-J item 19 score (Irritability) [5] | ABC-J item 27 score (Stereotypical Behavior) [5] | ABC-J item 28 score (Hyperactivity) [5] | ABC-J item 29 score (Irritability) [5] | ABC-J item 31 score (Hyperactivity) [5] | ABC-J item 32 score (Lethargy) [5] | ABC-J item 33 score (Inappropriate Speech) [5] | ABC-J item 34 score (Irritability) [5] | ABC-J item 36 score (Irritability) [5] | ABC-J item 38 score (Hyperactivity) [5] | ABC-J item 39 score (Hyperactivity) [5] | ABC-J item 41 score (Irritability) [5] | ABC-J item 44 score (Hyperactivity) [5] | ABC-J item 47 score (Irritability) [5] | ABC-J item 48 score (Hyperactivity) [5] | ABC-J item 49 score (Stereotypical Behavior) [5] | ABC-J item 50 score (Irritability) [5] | ABC-J item 51 score (Hyperactivity) [5] | ABC-J item 52 score (Irritability) [5] | ABC-J item 53 score (Lethargy) [5] | ABC-J item 54 score (Hyperactivity) [5] | ABC-J item 55 score (Lethargy) [5] | ABC-J item 56 score (Hyperactivity) [5] | ABC-J item 57 score (Irritability) [5] | ABC-J item 4 score (Irritability) [6] | ABC-J item 10 score (Irritability) [6] | ABC-J item 12 score (Lethargy) [6] | ABC-J item 20 score (Lethargy) [6] | ABC-J item 21 score (Hyperactivity) [6] | ABC-J item 23 score (Lethargy) [6] | ABC-J item 24 score (Hyperactivity) [6] | ABC-J item 30 score (Lethargy) [6] | ABC-J item 35 score (Stereotypical Behavior) [6] | ABC-J item 37 score (Lethargy) [6] | ABC-J item 40 score (Lethargy) [6] | ABC-J item 43 score (Lethargy) [6] | ABC-J item 58 score (Lethargy) [6] | ABC-J item 3 score (Lethargy) [7] | ABC-J item 14 score (Irritability) [7] | ABC-J item 25 score (Irritability) [7] | ABC-J subscale total score: Irritability (case 2, 600 mg/day oral + fursultiamine 25 mg/day, 17 days after start, before administration: 6)
alleviated the severity: severity of irritability and self-harming behavior [9]
2: ABC-J item 42 score (Lethargy) (case 2, 600 mg/day oral + fursultiamine 25 mg/day, 17 days after start, before administration: 3) | ABC-J subscale total score: Hyperactivity [8] | ABC-J subscale total score: Inappropriate Speech [8] | ABC-J subscale total score: Stereotypical Behavior (case 2, 600 mg/day oral + fursultiamine 25 mg/day, 17 days after start, before administration: 5)
decreased: total score of all ABC-J items compared with before administration (case 3, 800 mg/day oral + fursultiamine 25 mg/day, 8 weeks, FIG. 7A) | ABC-J total score of each of the 5 subscales compared with before administration (case 3, 800 mg/day oral + fursultiamine 25 mg/day, 8 weeks, FIG. 7B) | total score of all items of ABC-J compared with before administration (case 4 (no speech), 800 mg/day oral + fursultiamine 25 mg/day, 8 weeks, FIG. 9A) | ABC-J subtotal score of the four subscales compared with before administration (case 4, 800 mg/day oral + fursultiamine 25 mg/day, 8 weeks, Inappropriate Speech zero because no speech, FIG. 9B)
significant improvement in symptoms: ABC-J symptoms across the 5 subscales I to V compared with before taking the drug (case 1, 600 mg/day oral + fursultiamine 25 mg/day, 1 month)
1: ABC-J item 4 score (Irritability) [1] | ABC-J item 32 score (Lethargy) [1] | ABC-J item 12 score (Lethargy) [2] | ABC-J item 20 score (Lethargy) [2] | ABC-J item 40 score (Lethargy) [2] | ABC-J item 48 score (Hyperactivity) [2] | ABC-J item 58 score (Lethargy) [2] | ABC-J item 1 score (Hyperactivity) [3] | ABC-J item 15 score (Hyperactivity) [3] | ABC-J item 22 score (Inappropriate Speech) [3] | ABC-J item 23 score (Lethargy) [3] | ABC-J item 27 score (Stereotypical Behavior) [3] | ABC-J item 35 score (Stereotypical Behavior) [3] | ABC-J item 38 score (Hyperactivity) [3] | ABC-J item 45 score (Stereotypical Behavior) [3] | ABC-J item 49 score (Stereotypical Behavior) [3] | ABC-J item 6 score (Stereotypical Behavior) [4] | ABC-J item 11 score (Stereotypical Behavior) [4] | ABC-J subscale total score: Inappropriate Speech [4] | ABC-J subscale total score: Irritability (case 1, 600 mg/day oral + fursultiamine 25 mg/day, 1 month after start, before administration: 11) | ABC-J item 1 score (Hyperactivity) [6] | ABC-J item 15 score (Hyperactivity) [6] | ABC-J item 26 score (Lethargy) [6] | ABC-J item 5 score (Lethargy) [7] | ABC-J item 6 score (Stereotypical Behavior) [7] | ABC-J item 16 score (Lethargy) [7] | ABC-J item 22 score (Inappropriate Speech) [7] | ABC-J item 45 score (Stereotypical Behavior) [7] | ABC-J item 46 score (Inappropriate Speech) [7]
significantly improved symptoms: ABC-J symptoms across all of the 5 subscales I to V (case 2, 600 mg/day oral + fursultiamine 25 mg/day, 17 days)
significantly improved: stereotypical behaviors (DSM-5 diagnostic criteria B(1)) [9]
